This is an account of results in patent US20110313153A1, “5-HT4 INHIBITORS FOR TREATING AIRWAY DISEASES, IN PARTICULAR ASTHMA” (priority 2009, published 2011).

Assay [1] deals with OVA-sensitized mice. The experiment in a line: OVA-induced experimental asthma in mice: BAL cell infiltrate and MLN cytokines. In kind it is in vivo, BALB/c mice. Here is the method:
(§1) BALB/c mice (n=6-8 per group) were sensitized to OVA by i.p. injection of OVA/alum (10 μg OVA grade V adsorbed to 1 mg aluminium hydroxide; Sigma-Aldrich) on days 0 and 7 and were subjected to OVA aerosol challenges (grade III) on days 17-19; aerosol challenges were dispensed from a jet nebulizer delivering 1% OVA in PBS for 30 minutes. Thirty minutes before each OVA exposure, mice were anesthetized using Avertin (Sigma-Aldrich) and received an i.t. injection of control vehicle, or of M0014 (0.1, 0.4 or 4 nM in PBS) in a volume of 80 μl. Twenty-four hours after the last OVA exposure, BAL was performed and LNs were resected and digested using collagenase/DNAse.
Flow cytometry and sorting. After counting and washing, BAL cells were stained for 30 minutes with FITC-labeled anti-I-Ad/I-Ed (macrophages/DCs), PE-labeled anti-CCR3 (eosinophils), Cy-chrome-labeled anti-CD3 and anti-CD19 (lymphocytes), and allophycocyanin-labeled (APClabeled) anti-CD11c (macrophages/DCs) in PBS containing 0.5% BSA and 0.01% sodium azide. Differential cell counts were analyzed by flow cytometry, as previously described (van Rijt et al., 2004).
Cytokine measurements. To measure cytokine levels, MLN cells were plated in round-bottomed 96-well plates (1×10^6 cells/ml) and restimulated with OVA (10 μg/ml) for 4 days. The presence of IL-4, IL-5, IL-13 and IFN-γ was assayed on supernatants by ELISA (BD).

The subject of assay [2] is OVA-sensitized mice. Kind of assay: Bronchial hyperreactivity (BHR) to i.v. metacholine, dynamic resistance and compliance. In kind it is in vivo, BALB/c mice. Conditions: M0014 prior to each allergen challenge; measured 24 hours after the last OVA aerosol; FIG. 2. On the procedure: as §1
For the measurement of dynamic resistance and compliance, mice were anesthetized with urethane, paralyzed using d-tubocurarine, tracheotomized, and intubated with an 18-gauge catheter, followed by mechanical ventilation with a Flexivent apparatus (SCIREQ). Respiratory frequency was set at 120 breaths per min with a tidal volume of 0.2 ml and a positive end-expiratory pressure of […]. Increasing concentrations of metacholine were administered via the jugular vein. Dynamic resistance and compliance was recorded after a standardized inhalation maneuver given every 10 seconds for 2 minutes. Baseline resistance was restored before administering the subsequent doses of metacholine.

Another assay has as its system Balb/c mice. The experiment in a line: Zymosan induced inflammatory cell recruitment to the lung. In kind it is in vivo, Female Balb/c mice. Here is the method: Female Balb/c mice (7-8 weeks; 20 g) were used in all studies. The animals were kept in standard animal holding facilities and have unlimited access to food and water. Animals were randomized to receive vehicle or 0.1-0.2 ml/20 g mouse, M0014 (0.001, 0.01, 0.1 and 1 mg/kg) via the oral route 30 min prior to, and 6 h after the administration of zymosan (i.n; 20 μL to each nostril, to give a total volume of administration of 40 μL). Animals received zymosan A to give a total dose of 4 mg/mouse.
5 mg of M0014 was dissolved in 5 mL of sterile water to give 1 mg/ml solution. The solutions were prepared freshly each time. The 1 mg/ml solution was diluted to a 0.1, 0.01, 0.001 and 0.0001 mg/ml solution. From these concentrations, 0.2 ml was administered orally to obtain 1, 0.1, 0.01 and 0.001 mg/kg respectively. Sterile water used as control vehicle.
Twenty-four hours after dosing, the mice were killed by overdose with an injectable anaesthetic and 0.5 ml of saline was injected into lung via a tracheal cannula and the fluid collected. This was repeated 3 times. Approximately 1 ml of lavage fluid was collected and stored on ice. Total cells and differential cells were counted and a reduction in neutrophil numbers was the primary end point.

A further assay relates to conscious dogs. Kind of assay: SSRI-induced loss of fundic compliance in conscious dogs. Conditions: low doses, data not shown. In kind it is in vivo, dog. An excerpt: (§2) Also the aroylated 4-aminomethylpiperidines 5-HT4 receptor antagonists (hereinafter also referred to as the compounds) of the present invention (e.g. compound M0014) were capable to suppress or inverse the 5-HT4 R-mediated prokinetic activity of serotonin or 5-HT4 R agonists in the GI tract (data not shown). For example, in conscious dogs, low doses of M0014 reversed the selective serotonin re-uptake inhibitor (SSRI)-induced loss of fundic compliance. […] As a final example, the compound reversed the 5-HT4 R agonist-induced stimulation of canine antral motility, measured with chronically implanted strain gauges.

Assay [3] has as its system dog. The experiment in a line: Dog model of delayed gastric emptying of a liquid meal. In kind it is in vivo. Conditions: data not shown.
Text: as §2

The subject of assay [4] is dog. Kind of assay: Canine antral motility measured with chronically implanted strain gauges. In kind it is in vivo. Conditions: data not shown.
Text: as §2

The subject of assay [5] is GI tract. The experiment in a line: Effect of the antagonist by itself on the studied GI functions. In kind it is in vivo, dog. The conditions noted are these: without agonist.
Text: as §2
Similar to SB-207266, the 5-HT4 R antagonist M0014 had by itself no effect on the studied GI functions mentioned above.

A further assay has as its system guinea-pigs. Conditions: antigen induced, guinea pig model; cited from earlier work.
Assay [6] concerns human airway epithelial cells, dendritic cells, monocytes. Conditions: no effect of the antagonist per se described; cited from earlier work.
Assay [7] relates to GI tract. The conditions noted are these: Sanger et al., cited from earlier work.
Setting [8] is: MLN cells restimulated with OVA for 4 days, ELISA, FIG. 1C and D.
Setting [9] is: i.t. 80 μl, 0.1, 0.4 or 4 nM, 30 minutes prior to each allergen challenge, FIG. 1A.

“Also recorded” adds a separate entry of the source.

Regarding `COCCCN1CC[C@@H](CNC(=O)c2cc(C)cc3c2OCCCO3)[C@H](O)C1` (relative stereo) [M0014, (3S-trans)-8-methyl-3,4-dihydro-3H-benzo[b][1,4]dioxepine-6-carboxylic acid [3-hydroxy-1-(3-methoxy-propyl)-piperidine-4-ylmethyl]-amide], in the assay on OVA-sensitized mice [1] (setting [8]), the “IFN-γ production in the MLNs” value is reported as “weak increase”, the “levels of IL-4 in the MLNs” value was “mildly but significantly reduced”, the “levels of IL-5 in the MLNs” value was “mildly but significantly reduced” and the “levels of IL-13 in the MLNs” value is reported as “mildly but significantly reduced”. In addition, in the assay on OVA-sensitized mice [1] (setting [9]), the “eosinophil infiltrate into the BAL compartment” value was “significant dose-dependent reduction”, the “lymphocyte infiltrate into the BAL compartment” value is listed as “significant dose-dependent reduction” and the “macrophage infiltrate into the BAL compartment” value is reported as “significant dose-dependent reduction”. Besides, the “OVA-induced change in metacholine responsiveness” value in the assay with OVA-sensitized mice [2] was “markedly attenuated”. The neutrophil cell number result with Balb/c mice (FIG. 3 legend, <0.05 cf zymosan alone) was “significant effect”. In the assay on Balb/c mice (oral, 0.01 and 0.1 mg/kg, 30 min prior to and 6 h after zymosan, P<0.05 Dunnett's test versus control, FIG. 3a), the “total number of cells recruited to the airways” value is listed as “significant effect; also recorded: significantly reduced”. For the same compound, the “decrease in the recruitment of neutrophils to the airways” value in the assay on Balb/c mice (oral, 0.01 and 0.1 mg/kg, P<0.01 Dunnett's test vs control, FIG. 3c) is 40-50%. Besides, in the assay with conscious dogs, the “SSRI-induced loss of fundic compliance” value was “reversed”. Moreover, in the assay with dog [3], the “5-HT4 R agonist-induced acceleration of gastric emptying” value is reported as “potently inhibited”. In addition, in the assay on dog [4], the “5-HT4 R agonist-induced stimulation of canine antral motility” value is “reversed”. The “effect by itself on the studied GI functions” value with GI tract [5] was “no effect”.

As to `Cn1cc(C(=O)OCC2CCN(CCNS(C)(=O)=O)CC2)c2ccccc21` [GR113808], in the assay on guinea-pigs, the airway hyperresponsiveness entry is “capable to normalize”.

On to `COc1cc(COc2cc(N)c(Cl)cc2C(=O)CCC2CCN(CCNS(C)(=O)=O)CC2)cc(OC)c1` [RS 39604], for which the “effects of 5-HT” value in assay [6] is reported as “inhibit”.

With `CCCCN1CCC(CNC(=O)c2c3n(c4ccccc24)CCCO3)CC1` [piboserod], in the assay with GI tract [7] (2000, Bharucha et al.), the “5-HT4 R-mediated effects of serotonin (5-HT) in the GI tract” value is “antagonizes”. In addition, the normal bowel motility entry in the assay with GI tract [7] (animals or humans, 1998) was “does not seem to affect”.
